From US20240076620A1, “PRODUCTION OF SKELETAL MUSCLE CELLS AND SKELETAL MUSCLE TISSUE FROM PLURIPOTENT STEM CELLS” (Georg-August-Universität Göttingen Stiftung Öffentlichen …, priority 2019, published 2024)

Assays:
Assay type in all cases: cell-based, human
[1] = tested on: engineered skeletal muscle tissue (ESM); assay: Isometric force measurements of engineered skeletal muscle (ESM) matured with medium additives; settings: for contraction speed (+dFOC/dt): 100 Hz stimulation; for contraction speed (+dFOC/dt) / relaxation speed (−dFOC/dt): vs without added T3; for relaxation speed (−dFOC/dt): after 100 Hz stimulation; for increase of the force of contraction: 100 Hz, vs no creatine
Excerpt: To further increase the function of engineered skeletal muscle, e.g. the contraction force can be increased by adding specific molecules. In this example, we specifically tested the enhancement of the contraction force, as well as contraction and relaxation times, in response to the addition of creatine and an increased concentration of thyroid hormone T3 (triiodo-L-thyronine (T3); from 3 to 100 nmol/L in the maturation medium in step iv). Here, the procedure according to Examples 1 and 2 was performed first. In contrast to Example 2, the maturation medium was supplemented with creatine or an increased concentration of T3 either between days 28 and 56 or between days 56 and 84 of the method.
The maturation medium was changed every other day and cultured under mechanical stretching for up to 9 weeks. The maturation medium comprised DMEM, with low glucose, GlutaMAX™ Supplement, pyruvate (Thermo Fisher Scientific), 1% N-2 Supplement (Thermo Fisher Scientific), 2% B-27 Supplement (Thermo Fisher Scientific), and optional antibiotics (e.g., 1% Pen/Strep-Thermo Fisher Scientific). 0.1 μM T3 (Sigma-Aldrich) or 1 mM creatine monohydrate (Sigma-Aldrich) were added to the maturation medium for a four-week period when indicated (e.g., day 28-56 or day 56-84).
The contractile function of engineered skeletal muscle tissue was measured under isometric conditions in an organ bath filled with gassed (5% CO2/95% 02) Tyrode solution (containing in mmol/L): 120 NaCl, 1 MgCl2, 0.2 CaCl2), 5.4 KCl, 22.6 NaHCO3, […], 5.6 glucose, and 0.56 ascorbate) at 37° C. To verify the force-length relationship—while ESMs were electrically stimulated at 1 Hz with 5 ms rectangular pulses of 200 mA—muscle length was increased by mechanical stretching in intervals of 125 μm, until the maximum contraction force was observed. At the length of maximum force generation, tetanic contraction force was assessed under defined stimulation frequencies (4-second stimulation at 10, 20, 40, 60, 80, and 100 Hz).

[2] = tested on: MYH2 (fast myosin heavy chain); assay: Western blot of myosin heavy chain protein in ESM; settings: four-week addition of 0.1 μM T3; day 84; three independent experiments
Experimental: (§1) To investigate the molecular cause of this improved muscle function, the expression of different proteins was analyzed by Western blots. MYH2 is the heavy chain of the fast myosin (MYH2; fast myosin heavy chain); MYH7 is the heavy chain of the slow myosin (MYH7; slow myosin heavy chain); MYH3 is the heavy chain of the embryonic myosin (MYH3; embryonic myosin heavy chain). Protein expression was analyzed at day 84. […] Based on three independent experiments, the expression is increased at least 5-fold. The expression of MYH7 remained unchanged by an addition of 0.1 μM T3. […] These protein expression data support the functional data from FIGS. 10B, as the reduced response time of the engineered skeletal muscle can be explained by an increased expression of the fast myosin (MYH2) isoform by T3.
(§2) For protein isolation, engineered skeletal muscle was placed in an Eppendorf tube and snap frozen in liquid nitrogen. To the engineered skeletal muscle, 150 μl of ice-cold protein lysate buffer (2.38 g HEPES, 10.20 g NaCl, 100 ml glycerol, 102 mg MgCl2, 93 mg EDTA, 19 mg EGTA, 5 ml NP-40 in a total volume of 500 ml ddH2O) containing 1/10 phosphatase inhibitor (Roche) and 1/7 protease inhibitor (Roche) were added. A 7-mm stainless steel ball (Qiagen) was added to the Eppendorf tube, and the sample was homogenized using the TissueLyser II (Qiagen) for 30 seconds at 30 Hz and 4° C., followed by incubation on ice for 2 hours and then centrifugation at 12,000 rpm and 4° C. for 30 minutes. The supernatant was collected as a protein sample, and the protein concentration was measured by Bradford protein assay. […] Protein expression in ESM was analyzed by Western blot using the following primary antibodies: monoclonal embryonic myosin heavy chain 3 (1:500, F1.652, DSHB), slow myosin type heavy chain 7 (1:500, A4.951, DSHB), and fast myosin type heavy chain 2 (1:100, A4.74, DSHB). […] Protein quantification from the Western blot was performed using ImageJ.

[3] = tested on: MYH3 (embryonic myosin heavy chain); assay: Western blot of myosin heavy chain protein in ESM; settings: addition of 0.1 μM T3; day 84; on average
Experimental: as §1, §2

[4] = tested on: MYH7 (slow myosin heavy chain); assay: Western blot of myosin heavy chain protein in ESM; settings: addition of 0.1 μM T3; day 84
Experimental: as §1, §2

[5] = 0.1 μM T3 between days 56 and 84

Structure (SMILES)	contraction speed (+dFOC/dt) [1, 5]	relaxation speed (−dFOC/dt) [1, 5]	contraction speed (+dFOC/dt) ([1]; 0.1 μM T3 day 28 to day 56)	relaxation speed (−dFOC/dt) ([1]; 0.1 μM T3 day 28 to day 56)	protein expression of MYH2, increase [2]	MYH3 expression [3]	expression of MYH7 [4]	increase of the force of contraction ([1]; 1 mM creatine day 28 to day 56) [%]	increase of the force of contraction ([1]; 1 mM creatine day 56 to day 84) [%]	force of contraction (FOC) ([1]; maturation medium with 1 mM creatine day 28 to day 56, tetanic contraction at 100 Hz stimulation, without creatine 1.8 mN) [mN]	force of contraction (twitch tension) ([1]; maturation medium with 1 mM creatine day 56 to day 84, tetanic contraction at 100 Hz stimulation, without creatine 4.0 mN) [mN]
N[C@@H](Cc1cc(I)c(Oc2ccc(O)c(I)c2)c(I)c1)C(=O)O [T3, triiodo-L-thyronine]	decreased	decreased	decreased significantly	decreased significantly	at least 5 fold	reduced by approximately half	unchanged				
CN(CC(=O)O)C(=N)N [creatine]								39	30	2.5	5.2
